Experimental data reported in ChEMBL document CHEMBL5149992, “Discovery, Optimization, and Evaluation of Quinazolinone Derivatives with Novel Linkers as Orally Efficacious Phosphoinositide-3-Kinase Delta Inhibitors for Treatment of Inflammatory Diseases” (J Med Chem, 2021).

Assays:
[1] = biological target: T1, Phosphatidylinositol 4,5-bisphosphate 3-kinase catalytic subunit delta isoform (Homo sapiens, UniProt O00329); assay: Inhibition of PI3Kdelta (unknown origin)
T1 sequence (O00329 whole entry): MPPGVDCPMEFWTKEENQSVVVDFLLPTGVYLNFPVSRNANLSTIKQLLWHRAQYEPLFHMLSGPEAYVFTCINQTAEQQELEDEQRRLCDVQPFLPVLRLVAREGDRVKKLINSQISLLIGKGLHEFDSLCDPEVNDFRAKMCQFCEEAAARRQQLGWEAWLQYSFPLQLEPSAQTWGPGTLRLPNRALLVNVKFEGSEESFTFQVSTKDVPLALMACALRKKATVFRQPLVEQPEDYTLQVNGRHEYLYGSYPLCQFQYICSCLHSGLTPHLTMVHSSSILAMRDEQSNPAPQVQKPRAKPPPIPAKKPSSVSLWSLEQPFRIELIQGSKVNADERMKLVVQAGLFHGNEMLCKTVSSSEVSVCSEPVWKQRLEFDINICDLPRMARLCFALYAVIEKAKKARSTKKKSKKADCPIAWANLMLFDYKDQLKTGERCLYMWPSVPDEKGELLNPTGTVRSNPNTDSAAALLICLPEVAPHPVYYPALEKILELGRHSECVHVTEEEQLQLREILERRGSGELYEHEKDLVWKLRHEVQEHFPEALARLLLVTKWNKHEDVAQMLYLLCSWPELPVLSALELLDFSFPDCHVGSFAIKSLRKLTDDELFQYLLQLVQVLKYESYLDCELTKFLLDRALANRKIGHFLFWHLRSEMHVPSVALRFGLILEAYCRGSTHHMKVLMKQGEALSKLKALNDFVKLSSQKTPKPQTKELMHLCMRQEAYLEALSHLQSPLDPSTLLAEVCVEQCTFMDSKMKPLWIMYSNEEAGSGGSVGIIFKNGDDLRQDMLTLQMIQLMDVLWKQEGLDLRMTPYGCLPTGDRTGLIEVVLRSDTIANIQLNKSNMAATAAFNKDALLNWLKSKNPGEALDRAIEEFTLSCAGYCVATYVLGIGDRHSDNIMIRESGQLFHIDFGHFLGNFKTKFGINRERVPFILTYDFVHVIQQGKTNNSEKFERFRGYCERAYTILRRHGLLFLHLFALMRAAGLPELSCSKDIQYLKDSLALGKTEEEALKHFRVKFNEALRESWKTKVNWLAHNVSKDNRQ

in vitro = conditions: human, liver microsomes
[2] = biological target: T2, Phosphatidylinositol 4,5-bisphosphate 3-kinase catalytic subunit delta isoform (Homo sapiens) (UniProt O00329); assay: Inhibition of PI3Kdelta (unknown origin) at 0.1 uM using phosphatidylinositol as substrate incubated for 30 mins in presence of ATP by HTRF based assay relative to control
T2 sequence (whole entry): T1 sequence (O00329 whole entry)

[3] = human, microsomes, 10 µM
[4] = biological target: T2, Phosphatidylinositol 4,5-bisphosphate 3-kinase catalytic subunit delta isoform (Homo sapiens); assay: Inhibition of PI3Kdelta (unknown origin) at 0.01 uM using phosphatidylinositol as substrate incubated for 30 mins in presence of ATP by HTRF based assay relative to control
[5] = biological target: T3, Phosphatidylinositol 4,5-bisphosphate 3-kinase catalytic subunit beta isoform (Homo sapiens, UniProt P42338); assay: Inhibition of PI3Kbeta (unknown origin)
Target sequence in this assay (P42338 whole entry, canonical isoform): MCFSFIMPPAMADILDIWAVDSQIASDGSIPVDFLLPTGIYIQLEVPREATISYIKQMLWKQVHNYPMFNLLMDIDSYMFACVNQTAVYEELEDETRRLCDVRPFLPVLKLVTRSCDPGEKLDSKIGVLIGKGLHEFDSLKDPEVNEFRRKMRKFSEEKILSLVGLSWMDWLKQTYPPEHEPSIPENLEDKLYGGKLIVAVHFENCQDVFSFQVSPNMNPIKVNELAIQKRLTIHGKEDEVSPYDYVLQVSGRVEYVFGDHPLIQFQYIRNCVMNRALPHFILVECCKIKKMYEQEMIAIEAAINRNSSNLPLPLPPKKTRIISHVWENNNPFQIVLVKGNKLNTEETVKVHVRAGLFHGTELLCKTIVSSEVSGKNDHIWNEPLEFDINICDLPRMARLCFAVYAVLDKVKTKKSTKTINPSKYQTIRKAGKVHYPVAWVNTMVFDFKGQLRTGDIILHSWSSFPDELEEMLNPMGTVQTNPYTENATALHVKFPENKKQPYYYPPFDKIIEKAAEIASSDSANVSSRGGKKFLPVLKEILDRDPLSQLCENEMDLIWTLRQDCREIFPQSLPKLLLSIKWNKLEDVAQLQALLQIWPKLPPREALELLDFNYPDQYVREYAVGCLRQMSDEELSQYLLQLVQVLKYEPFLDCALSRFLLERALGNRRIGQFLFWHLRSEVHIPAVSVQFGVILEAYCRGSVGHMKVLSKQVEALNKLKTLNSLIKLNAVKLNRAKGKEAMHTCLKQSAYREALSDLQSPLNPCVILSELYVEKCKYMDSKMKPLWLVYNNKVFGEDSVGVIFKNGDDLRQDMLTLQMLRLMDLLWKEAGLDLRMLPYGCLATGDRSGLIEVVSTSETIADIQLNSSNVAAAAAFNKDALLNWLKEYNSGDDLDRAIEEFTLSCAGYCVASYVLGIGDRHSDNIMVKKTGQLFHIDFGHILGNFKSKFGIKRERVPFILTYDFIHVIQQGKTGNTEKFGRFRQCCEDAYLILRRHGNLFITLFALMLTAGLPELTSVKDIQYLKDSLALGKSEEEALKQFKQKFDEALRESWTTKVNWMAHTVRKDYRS

[6] = biological target: T4, Phosphatidylinositol 4,5-bisphosphate 3-kinase catalytic subunit alpha isoform (Homo sapiens, UniProt P42336); assay: Inhibition of PI3Kalpha (unknown origin)
T4 sequence (P42336 whole entry, canonical isoform): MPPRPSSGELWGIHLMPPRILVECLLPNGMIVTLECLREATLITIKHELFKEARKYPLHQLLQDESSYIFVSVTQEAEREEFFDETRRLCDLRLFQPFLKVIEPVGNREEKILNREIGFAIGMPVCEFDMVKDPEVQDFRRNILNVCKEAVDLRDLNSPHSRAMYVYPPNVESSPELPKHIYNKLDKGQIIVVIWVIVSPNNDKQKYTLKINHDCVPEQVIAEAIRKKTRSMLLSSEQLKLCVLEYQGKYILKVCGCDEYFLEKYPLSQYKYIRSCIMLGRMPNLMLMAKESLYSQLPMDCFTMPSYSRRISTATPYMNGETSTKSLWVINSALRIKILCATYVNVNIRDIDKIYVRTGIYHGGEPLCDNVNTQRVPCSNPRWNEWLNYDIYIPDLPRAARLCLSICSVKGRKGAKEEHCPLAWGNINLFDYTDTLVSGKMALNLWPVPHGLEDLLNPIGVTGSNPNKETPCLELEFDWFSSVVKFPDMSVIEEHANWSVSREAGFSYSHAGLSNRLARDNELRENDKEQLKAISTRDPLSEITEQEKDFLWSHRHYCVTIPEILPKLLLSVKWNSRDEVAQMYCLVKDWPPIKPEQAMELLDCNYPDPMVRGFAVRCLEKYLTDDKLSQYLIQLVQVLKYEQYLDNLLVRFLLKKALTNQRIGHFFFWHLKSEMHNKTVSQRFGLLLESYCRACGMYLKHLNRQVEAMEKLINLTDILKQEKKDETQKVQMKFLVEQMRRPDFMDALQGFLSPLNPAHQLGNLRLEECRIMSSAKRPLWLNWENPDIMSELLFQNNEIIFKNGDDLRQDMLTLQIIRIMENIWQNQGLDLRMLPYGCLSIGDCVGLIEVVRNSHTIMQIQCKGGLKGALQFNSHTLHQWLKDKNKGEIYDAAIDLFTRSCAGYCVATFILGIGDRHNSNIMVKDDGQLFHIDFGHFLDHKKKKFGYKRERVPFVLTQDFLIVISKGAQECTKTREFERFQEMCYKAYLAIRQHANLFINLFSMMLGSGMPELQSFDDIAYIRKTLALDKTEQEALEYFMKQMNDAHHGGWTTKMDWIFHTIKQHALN

[7] = biological target: T5, Phosphatidylinositol 4,5-bisphosphate 3-kinase catalytic subunit gamma isoform (Homo sapiens, UniProt P48736); assay: Inhibition of PI3Kgamma (unknown origin)
Target sequence in this assay (P48736 whole entry, canonical isoform): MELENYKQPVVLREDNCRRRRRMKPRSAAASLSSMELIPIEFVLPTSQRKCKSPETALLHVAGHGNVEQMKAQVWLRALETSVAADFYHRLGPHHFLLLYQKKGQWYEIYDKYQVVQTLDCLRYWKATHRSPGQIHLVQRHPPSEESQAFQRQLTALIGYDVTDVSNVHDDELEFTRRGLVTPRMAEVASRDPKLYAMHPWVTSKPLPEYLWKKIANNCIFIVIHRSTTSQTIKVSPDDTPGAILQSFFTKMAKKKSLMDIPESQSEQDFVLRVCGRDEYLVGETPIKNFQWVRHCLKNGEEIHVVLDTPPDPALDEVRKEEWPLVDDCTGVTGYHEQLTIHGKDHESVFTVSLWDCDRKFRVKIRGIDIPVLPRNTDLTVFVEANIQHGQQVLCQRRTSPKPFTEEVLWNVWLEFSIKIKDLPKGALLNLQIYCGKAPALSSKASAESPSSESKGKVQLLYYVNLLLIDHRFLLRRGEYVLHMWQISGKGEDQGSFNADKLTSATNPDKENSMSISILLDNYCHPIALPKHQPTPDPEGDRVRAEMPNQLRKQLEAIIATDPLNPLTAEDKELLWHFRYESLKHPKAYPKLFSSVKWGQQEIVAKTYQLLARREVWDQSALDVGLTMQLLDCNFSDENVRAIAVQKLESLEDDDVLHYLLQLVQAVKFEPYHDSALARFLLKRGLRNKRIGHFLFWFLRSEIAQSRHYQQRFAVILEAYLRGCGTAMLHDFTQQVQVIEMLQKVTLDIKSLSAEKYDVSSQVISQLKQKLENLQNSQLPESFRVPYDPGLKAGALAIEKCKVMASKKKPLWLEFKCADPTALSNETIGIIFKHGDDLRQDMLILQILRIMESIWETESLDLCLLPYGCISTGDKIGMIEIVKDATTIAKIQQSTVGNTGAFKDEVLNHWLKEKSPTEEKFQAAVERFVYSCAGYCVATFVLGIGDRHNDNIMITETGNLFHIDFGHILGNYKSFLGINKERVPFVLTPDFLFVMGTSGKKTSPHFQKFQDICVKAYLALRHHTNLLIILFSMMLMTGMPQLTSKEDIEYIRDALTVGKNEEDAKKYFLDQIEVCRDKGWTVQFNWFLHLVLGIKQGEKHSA

[8] = biological target: T3, Phosphatidylinositol 4,5-bisphosphate 3-kinase catalytic subunit beta isoform; assay: Inhibition of PI3Kbeta (unknown origin) at 0.1 uM relative to control
Target sequence in this assay (P42338 whole entry, looked up, canonical isoform): as the sequence (P42338 whole entry, canonical isoform) above

[9] = biological target: T4, Phosphatidylinositol 4,5-bisphosphate 3-kinase catalytic subunit alpha isoform; assay: Inhibition of PI3Kalpha (unknown origin) at 0.1 uM relative to control
[10] = biological target: T5, Phosphatidylinositol 4,5-bisphosphate 3-kinase catalytic subunit gamma isoform; assay: Inhibition of PI3Kgamma (unknown origin) at 0.1 uM relative to control
Target sequence in this assay (P48736 whole entry, looked up, canonical isoform): as the sequence (P48736 whole entry, canonical isoform) above

| SMILES | IC50 [1] | half-life at 60 h, 10 µM (in vitro) | inhibition [2] | CLH [3] | inhibition [4] | other results |
| --- | --- | --- | --- | --- | --- | --- |
| C=CCO[C@@H]1C[C@@H](c2nc3cccc(Cl)c3c(=O)n2-c2ccccc2)N(c2ncnc(N)c2C#N)C1 | 67 nM | 0.03 h | 47% | 767 mL/min/g | 17% | – |
| C=CCO[C@@H]1C[C@@H](c2nc3cccc(Cl)c3c(=O)n2-c2ccccc2)N(c2ncnc3[nH]cnc23)C1 | – | – | 8% | – | 1% | – |
| N#Cc1c(N)ncnc1N1[C@H](c2nc3cccc(F)c3c(=O)n2-c2cc(F)cc(F)c2)C[C@@H]2CCCC[C@@H]21 | 305 nM | 9.62 h | – | 2.4 mL/min/g | – | IC50 [5]: > 1000 nM; IC50 [6]: > 1000 nM; IC50 [7]: > 1000 nM |
| N#Cc1c(N)ncnc1N1CC2(CC2)C[C@H]1c1nc2cccc(Cl)c2c(=O)n1-c1ccccc1 | 20 nM | 0.837 h | 83% | 27.6 mL/min/g | 23% | IC50 [5]: > 1000 nM; IC50 [6]: > 1000 nM; IC50 [7]: 655 nM |
| C[C@H]1CC[C@@H](c2nc3cccc(Cl)c3c(=O)n2-c2ccccc2)N1c1ncnc(N)c1C#N | 5 nM | 1.02 h | – | 22.6 mL/min/g | – | IC50 [5]: 968 nM; IC50 [6]: > 1000 nM; IC50 [7]: 144 nM |
| Cc1ccnc(N2[C@H](c3nc4cccc(Cl)c4c(=O)n3-c3ccccc3)C[C@@H]3CCCC[C@@H]32)n1 | – | – | -1% | – | -1% | – |
| C[C@H]1CC[C@@H](c2nc3cccc(Cl)c3c(=O)n2-c2cccc(F)c2)N1c1nc(N)nc2[nH]cnc12 | 9 nM | – | – | – | – | inhibition [8]: 43%; inhibition [9]: 42%; IC50 [7]: 9 nM |
| Nc1nc(N2CC(F)(F)C[C@H]2c2nc3cccc(Cl)c3c(=O)n2-c2ccccc2)c2nc[nH]c2n1 | – | – | 50% | – | 11% | – |
| C[C@H]1CC[C@@H](c2nc3cccc(Cl)c3c(=O)n2-c2cccnc2)N1c1ncnc(N)c1C#N | 4 nM | 1.72 h | – | 13.4 mL/min/g | – | inhibition [8]: 45%; inhibition [9]: 18%; IC50 [7]: 351 nM |
| O=c1c2c(Cl)cccc2nc([C@@H]2C[C@@H]3CCCC[C@@H]3N2c2nc(Cl)nc3[nH]cnc23)n1-c1ccccc1 | – | – | 1% | – | -1% | – |
| Nc1ccnc(N2[C@H](c3nc4cccc(Cl)c4c(=O)n3-c3ccccc3)C[C@@H]3CCCC[C@@H]32)n1 | – | – | -3% | – | -1% | – |
| O=c1c2c(Cl)cccc2nc([C@@H]2C[C@@H]3CCCC[C@@H]3N2c2ncnc3[nH]ncc23)n1-c1ccccc1 | – | – | -3% | – | -3% | – |
| O=c1c2c(Cl)cccc2nc([C@@H]2C[C@@H]3CCCC[C@@H]3N2c2nccc(Cl)n2)n1-c1ccccc1 | – | – | -2% | – | -2% | – |
| N#Cc1c(N)ncnc1N1[C@H](c2nc3cccc(Cl)c3c(=O)n2-c2cccc(F)c2)C[C@@H]2CCCC[C@@H]21 | 34 nM | 2.31 h | – | 10 mL/min/g | – | inhibition [8]: 17%; inhibition [9]: 4%; inhibition [10]: 5% |
| C[C@H]1CC[C@@H](c2nc3cccc(Cl)c3c(=O)n2N2CCOCC2)N1c1ncnc(N)c1C#N | 10 nM | 1.83 h | – | 12.6 mL/min/g | – | inhibition [8]: 45%; inhibition [9]: 5%; IC50 [7]: 295 nM |
| C=C1C[C@@H](c2nc3cccc(Cl)c3c(=O)n2-c2ccccc2)N(c2ncnc3[nH]ccc23)C1 | – | – | 59% | – | 12% | – |
| N#Cc1c(N)ncnc1N1[C@H](c2nc3cccc(Cl)c3c(=O)n2-c2cccnc2)C[C@@H]2CCCC[C@@H]21 | 50 nM | 4.28 h | – | 5.4 mL/min/g | – | inhibition [8]: 17%; inhibition [9]: 17%; inhibition [10]: 3% |
| O=c1c2c(Cl)cccc2nc([C@@H]2CC(F)(F)CN2c2ncnc3[nH]ccc23)n1-c1ccccc1 | – | – | 26% | – | 4% | – |
| N#Cc1c(N)ncnc1N1[C@H](c2nc3cccc(Cl)c3c(=O)n2N2CCOCC2)C[C@@H]2CCCC[C@@H]21 | 14 nM | 2.1 h | – | 11 mL/min/g | – | inhibition [8]: 43%; inhibition [9]: 24%; inhibition [10]: 5% |

| SMILES | IC50 [1] | half-life at 60 h, 10 µM (in vitro) | inhibition [2] | CLH [3] | inhibition [4] | other results |
| --- | --- | --- | --- | --- | --- | --- |
| C[C@H]1CC[C@@H](c2nc3cccc(Cl)c3c(=O)n2-c2cccc(F)c2)N1c1ncnc2[nH]ccc12 | 30 nM | – | – | – | – | inhibition [9]: 19%; IC50 [7]: 74 nM |
| C[C@H]1CC[C@@H](c2nc3cccc(Cl)c3c(=O)n2-c2cccc(F)c2)N1c1ncnc(N)c1C#N | 3 nM | 2.22 h | – | 10.4 mL/min/g | – | IC50 [5]: > 1000 nM; IC50 [6]: > 1000 nM; IC50 [7]: 199 nM |
| C=CCO[C@@H]1C[C@@H](c2nc3cccc(Cl)c3c(=O)n2-c2ccccc2)N(c2ncnc3[nH]ccc23)C1 | – | – | 7% | – | 2% | – |
| C[C@H]1CC[C@@H](c2nc3cccc(Cl)c3c(=O)n2-c2ccccc2)N1c1nc(N)nc2[nH]cnc12 | 25 nM | 6.08 h | – | 3.8 mL/min/g | – | inhibition [8]: 69%; inhibition [9]: 22%; IC50 [7]: 38 nM |
| O=c1c2c(Cl)cccc2nc([C@@H]2CC3(CC3)CN2c2ncnc3[nH]ccc23)n1-c1ccccc1 | – | – | 8% | – | 2% | – |
| Nc1nc(N2CC3(CC3)C[C@H]2c2nc3cccc(Cl)c3c(=O)n2-c2ccccc2)c2nc[nH]c2n1 | – | – | 44% | – | 8% | – |
| O=c1c2c(Cl)cccc2nc([C@@H]2C[C@@H]3CCCC[C@@H]3N2c2ncnc3[nH]cnc23)n1-c1ccccc1 | – | – | 8% | – | 0% | – |
| O=c1c2c(Cl)cccc2nc([C@@H]2CC3(CC3)CN2c2ncnc3[nH]cnc23)n1-c1ccccc1 | – | – | 32% | – | 3% | – |
| C=C1C[C@@H](c2nc3cccc(Cl)c3c(=O)n2-c2ccccc2)N(c2ncnc3[nH]cnc23)C1 | – | – | 75% | – | 28% | – |
| N#Cc1c(N)ncnc1N1[C@H](c2nc3cccc(Cl)c3c(=O)n2-c2cc(F)cc(F)c2)C[C@@H]2CCCC[C@@H]21 | 142 nM | > 2 h | – | < 12 mL/min/g | – | IC50 [5]: > 1000 nM; IC50 [6]: > 1000 nM; IC50 [7]: > 1000 nM |
| C=C1C[C@@H](c2nc3cccc(Cl)c3c(=O)n2-c2ccccc2)N(c2ncnc(N)c2C#N)C1 | 3 nM | 0.223 h | 102% | 103.8 mL/min/g | 79% | IC50 [5]: 819 nM; IC50 [6]: > 1000 nM; IC50 [7]: 250 nM |
| O=c1c2c(Cl)cccc2nc([C@@H]2CC(F)(F)CN2c2ncnc3[nH]cnc23)n1-c1ccccc1 | – | – | 34% | – | 4% | – |
| C=CCO[C@@H]1C[C@@H](c2nc3cccc(Cl)c3c(=O)n2-c2ccccc2)N(c2nc(N)nc3[nH]cnc23)C1 | – | – | 42% | – | 7% | – |
| Nc1nc(N2CCC[C@H]2c2nc3cccc(Cl)c3c(=O)n2-c2ccccc2)c2nc[nH]c2n1 | – | 1.06 h | – | 21.8 mL/min/g | – | – |
| O=c1c2c(Cl)cccc2nc([C@@H]2C[C@@H]3CCCC[C@@H]3N2c2ncnc3[nH]ccc23)n1-c1ccccc1 | – | – | 3% | – | 1% | – |
| C=C1C[C@@H](c2nc3cccc(Cl)c3c(=O)n2-c2ccccc2)N(c2nc(N)nc3[nH]cnc23)C1 | – | – | 96% | – | 52% | – |
| Nc1nc(N2[C@H](c3nc4cccc(Cl)c4c(=O)n3-c3ccccc3)C[C@@H]3CCCC[C@@H]32)c2nc[nH]c2n1 | – | – | 6% | – | 2% | – |
| N#Cc1cccnc1N1[C@H](c2nc3cccc(Cl)c3c(=O)n2-c2ccccc2)C[C@@H]2CCCC[C@@H]21 | – | – | 0% | – | -1% | – |
